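Values below derive from 48-hour exposures of cells grown in 96-well plates, with endpoints linearly interpolated between the two concentrations bracketing the appropriate inhibition level. TGI marks complete inhibition of growth.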
How the values were obtained:
Assay in all cases: NCI-60 cell line screen, 48 h
CCRF-CEM leukemia = tested on: CCRF-CEM leukemia
A549 NSCLC = tested on: A549 NSCLC
U251 CNS = tested on: U251 CNS
SK-MEL-5 melanoma = tested on: SK-MEL-5 melanoma
SNB-19 CNS = tested on: SNB-19 CNS
HOP-62 NSCLC = tested on: HOP-62 NSCLC
SR leukemia = tested on: SR leukemia
SF-295 CNS = tested on: SF-295 CNS
EKVX NSCLC = tested on: EKVX NSCLC
BT-549 breast = tested on: BT-549 breast
M14 melanoma = tested on: M14 melanoma
SK-MEL-28 melanoma = tested on: SK-MEL-28 melanoma
A498 renal = tested on: A498 renal
OVCAR-3 ovarian = tested on: OVCAR-3 ovarian
OVCAR-5 ovarian = tested on: OVCAR-5 ovarian
OVCAR-8 ovarian = tested on: OVCAR-8 ovarian
TK-10 renal = tested on: TK-10 renal
MDA-MB-231 breast = tested on: MDA-MB-231 breast
PC-3 prostate = tested on: PC-3 prostate
CAKI-1 renal = tested on: CAKI-1 renal
SF-268 CNS = tested on: SF-268 CNS
UO-31 renal = tested on: UO-31 renal
SNB-75 CNS = tested on: SNB-75 CNS
HCT-116 colon = tested on: HCT-116 colon
T-47D breast = tested on: T-47D breast
HT29 colon = tested on: HT29 colon
SK-MEL-2 melanoma = tested on: SK-MEL-2 melanoma
ACHN renal = tested on: ACHN renal
K-562 leukemia = tested on: K-562 leukemia
MDA-N = tested on: MDA-N
MOLT-4 leukemia = tested on: MOLT-4 leukemia
NCI-H460 lung = tested on: NCI-H460 lung
DU-145 prostate = tested on: DU-145 prostate
UACC-257 melanoma = tested on: UACC-257 melanoma
IGROV1 ovarian = tested on: IGROV1 ovarian
LOX IMVI melanoma = tested on: LOX IMVI melanoma
NCI-H522 lung = tested on: NCI-H522 lung
MALME-3M melanoma = tested on: MALME-3M melanoma
MDA-MB-435 = tested on: MDA-MB-435
SN12C renal = tested on: SN12C renal
786-0 renal = tested on: 786-0 renal
HCT-15 colon = tested on: HCT-15 colon
NCI-H226 lung = tested on: NCI-H226 lung
NCI/ADR-RES ovarian = tested on: NCI/ADR-RES ovarian
HOP-92 NSCLC = tested on: HOP-92 NSCLC
OVCAR-4 ovarian = tested on: OVCAR-4 ovarian
SW-620 colon = tested on: SW-620 colon
RXF 393 renal = tested on: RXF 393 renal
HS 578T breast = tested on: HS 578T breast
KM12 colon = tested on: KM12 colon
NCI-H23 lung = tested on: NCI-H23 lung
UACC-62 melanoma = tested on: UACC-62 melanoma
HCC-2998 colon = tested on: HCC-2998 colon

Structure (SMILES): C(=Nc1ccc2c(c1)Cc1ccccc1-2)c1ccccn1
- TGI (CCRF-CEM leukemia): > 100 µM
- TGI (A549 NSCLC): > 100 µM
- TGI (U251 CNS): > 100 µM
- TGI (SK-MEL-5 melanoma): > 100 µM
- TGI (SNB-19 CNS): > 100 µM
- TGI (HOP-62 NSCLC): > 100 µM
- TGI (SR leukemia): > 100 µM
- TGI (SF-295 CNS): > 100 µM
- TGI (EKVX NSCLC): > 100 µM
- TGI (BT-549 breast): > 100 µM
- TGI (M14 melanoma): > 100 µM
- TGI (SK-MEL-28 melanoma): > 100 µM
- TGI (A498 renal): > 100 µM
- TGI (OVCAR-3 ovarian): > 100 µM
- TGI (OVCAR-5 ovarian): > 100 µM
- TGI (OVCAR-8 ovarian): > 100 µM
- TGI (TK-10 renal): > 100 µM
- TGI (MDA-MB-231 breast): > 100 µM
- TGI (PC-3 prostate): > 100 µM
- TGI (CAKI-1 renal): > 100 µM
- TGI (SF-268 CNS): > 100 µM
- TGI (UO-31 renal): > 100 µM
- TGI (SNB-75 CNS): > 100 µM
- TGI (HCT-116 colon): > 100 µM
- TGI (T-47D breast): > 100 µM
- TGI (HT29 colon): > 100 µM
- TGI (SK-MEL-2 melanoma): > 100 µM
- TGI (ACHN renal): > 100 µM
- TGI (K-562 leukemia): > 100 µM
- TGI (MDA-N): > 100 µM
- TGI (MOLT-4 leukemia): > 100 µM
- TGI (NCI-H460 lung): > 100 µM
- TGI (DU-145 prostate): > 100 µM
- TGI (UACC-257 melanoma): 79.1 µM
- TGI (IGROV1 ovarian): > 100 µM
- TGI (LOX IMVI melanoma): > 100 µM
- TGI (NCI-H522 lung): > 100 µM
- TGI (MALME-3M melanoma): > 100 µM
- TGI (MDA-MB-435): > 100 µM
- TGI (SN12C renal): 90.3 µM
- TGI (786-0 renal): > 100 µM
- TGI (HCT-15 colon): > 100 µM
- TGI (NCI-H226 lung): > 100 µM
- TGI (NCI/ADR-RES ovarian): > 100 µM
- TGI (HOP-92 NSCLC): > 100 µM
- TGI (OVCAR-4 ovarian): > 100 µM
- TGI (SW-620 colon): > 100 µM
- TGI (RXF 393 renal): > 100 µM
- TGI (HS 578T breast): > 100 µM
- TGI (KM12 colon): > 100 µM
- TGI (NCI-H23 lung): > 100 µM
- TGI (UACC-62 melanoma): > 100 µM

Structure (SMILES): O=c1cc(CF)[nH]c(=S)[nH]1
- TGI (CCRF-CEM leukemia): > 100 µM
- TGI (A549 NSCLC): > 100 µM
- TGI (U251 CNS): > 100 µM
- TGI (SK-MEL-5 melanoma): > 100 µM
- TGI (SNB-19 CNS): > 100 µM
- TGI (HOP-62 NSCLC): > 100 µM
- TGI (SR leukemia): > 100 µM
- TGI (SF-295 CNS): > 100 µM
- TGI (EKVX NSCLC): > 100 µM
- TGI (BT-549 breast): > 100 µM
- TGI (M14 melanoma): > 100 µM
- TGI (SK-MEL-28 melanoma): > 100 µM
- TGI (A498 renal): > 100 µM
- TGI (OVCAR-3 ovarian): > 100 µM
- TGI (OVCAR-5 ovarian): > 100 µM
- TGI (OVCAR-8 ovarian): > 100 µM
- TGI (TK-10 renal): > 100 µM
- TGI (MDA-MB-231 breast): > 100 µM
- TGI (PC-3 prostate): > 100 µM
- TGI (HCC-2998 colon): > 100 µM
- TGI (CAKI-1 renal): > 100 µM
- TGI (SF-268 CNS): > 100 µM
- TGI (UO-31 renal): > 100 µM
- TGI (SNB-75 CNS): > 100 µM
- TGI (HCT-116 colon): > 100 µM
- TGI (T-47D breast): > 100 µM
- TGI (HT29 colon): > 100 µM
- TGI (ACHN renal): > 100 µM
- TGI (K-562 leukemia): > 100 µM
- TGI (MDA-N): > 100 µM
- TGI (MOLT-4 leukemia): > 100 µM
- TGI (NCI-H460 lung): > 100 µM
- TGI (DU-145 prostate): > 100 µM
- TGI (UACC-257 melanoma): > 100 µM
- TGI (IGROV1 ovarian): > 100 µM
- TGI (LOX IMVI melanoma): > 100 µM
- TGI (NCI-H522 lung): > 100 µM
- TGI (MALME-3M melanoma): > 100 µM
- TGI (MDA-MB-435): > 100 µM
- TGI (SN12C renal): > 100 µM
- TGI (786-0 renal): > 100 µM
- TGI (HCT-15 colon): > 100 µM
- TGI (NCI-H226 lung): > 100 µM
- TGI (NCI/ADR-RES ovarian): > 100 µM
- TGI (HOP-92 NSCLC): > 100 µM
- TGI (OVCAR-4 ovarian): > 100 µM
- TGI (SW-620 colon): > 100 µM
- TGI (RXF 393 renal): > 100 µM
- TGI (HS 578T breast): > 100 µM
- TGI (KM12 colon): > 100 µM
- TGI (NCI-H23 lung): > 100 µM
- TGI (UACC-62 melanoma): > 100 µM
